This assay deals with DLD-1 BRCA2 (−/−) cells. The assay is described as follows: CellTiter-Glo DLD-1 BRCA2 (−/−) cell assay for PARP1/2 inhibition. The note with it: Homo sapiens, 144 h, 6 days, read-out: DLD-1 BRCA2 (−/−) CTG EC50. Format: cell-based. The method in brief: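 DLD-1 parent (500 cells/well) and DLD-1 BRCA2 (−/−) (1200 cells/well) cells in RPMI 1640 with 10% FBS exposed to compounds at 30 μM to 0.5 nM (3-fold dilutions) for 6 days at 37° C. Viability read by CellTiter-Glo luminescence on day 7.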
Background: Cellular ATP, detected with luciferase, serves as a proxy for viable cell number.

SMILES strings stand for the structures.

For the molecule `C[C@@H]1CN(c2ncc(C(F)(F)F)cn2)CCN1C(=O)[C@H]1C[C@@H](c2c[nH]c(=O)c(C(F)(F)F)c2)C1` [Example 1, 5-[(1S,3s)-3-{(2R)-2-methyl-4-[5-(trifluoromethyl)pyrimidin-2-yl]piperazine-1-carbonyl}cyclobutyl]-3-(trifluoromethyl)pyridin-2(1H)-one], the EC50 was 18.5 µM.

Source of the values: US20250333394A1, “Tiparp Inhibitor Compounds” (AbbVie Inc., priority 2024, published 2025).
